Here are results for nine molecules from ChEMBL document CHEMBL6103647, “Analgesic Grayanane-Derived Diterpenoids from the Flowers of Rhododendron molle” (J Nat Prod, 2025).

Structures are written as SMILES.

In data set [1] the test system is Mus musculus. The experiment in a line: Analgesic activity against acetic acid-induced ip dosed Kunming writhing mouse model assessed as effective dose pre-incubated for 15 mins followed by acetic acid addition and measured after 15 mins. The data set is classed as functional. The following applies: 0.25 h. For orientation: Writhing tests count abdominal constrictions after an irritant is injected.

Data set [2] in a line: Therapeutic index, ratio of LD50 for toxicity in ip dosed Kunming mouse assessed as lethal dose to ED50 for analgesic activity against acetic acid-induced Kunming writhing mouse model assessed as effective dose. The following applies: in vivo, read-out: TI. In kind it is organism-based.
The subject of data set [3] is Mus musculus. The experiment in a line: Analgesic activity against acetic acid-induced Kunming writhing mouse model assessed as inhibition of writhing at 1 mg/kg, ip pre-incubated for 15 mins followed by acetic acid addition and measured after 15 mins relative to control. The data set is classed as functional. The following applies: 0.25 h.
The test system of data set [4] is Mus musculus. The experiment in a line: Analgesic activity against acetic acid-induced Kunming writhing mouse model assessed as inhibition of writhing at 5 mg/kg, ip pre-incubated for 15 mins followed by acetic acid addition and measured after 15 mins relative to control. The data set is classed as functional. The following applies: 0.25 h.
The test system of data set [5] is Mus musculus. The experiment in a line: Analgesic activity against acetic acid-induced Kunming writhing mouse model assessed as inhibition of writhing at 0.2 mg/kg, ip pre-incubated for 15 mins followed by acetic acid addition and measured after 15 mins relative to control. The data set is classed as functional. The following applies: 0.25 h.
A short description of data set [6]: Toxicity in Kunming mouse at 5 mg/kg, ip administered for 15 mins. In kind it is organism-based. The following applies: in vivo, 0.25 h.
Data set [7] in a line: Toxicity in ip dosed Kunming mouse assessed as lethal dose. In kind it is organism-based. The following applies: in vivo.

In general, ED50 refers to the dose at which the effect has come halfway, by size or by number of responders. With `CC1(C)[C@@H](O)[C@H](O)[C@H]2[C@](C)(O)[C@@H]3CC[C@@H]4[C@@H](O)[C@@]3(C[C@@H](O)[C@@]21O)C[C@@]4(C)O`, the ED50 in the data set with Mus musculus [1] was 0.073 mg/kg. Besides, the selectivity ratio in data set [2] was found to be 24.5.

One may read the inhibition in vivo as how much of the control response was suppressed. With `CC1(C)[C@@H](O)[C@H](OC(=O)c2ccco2)[C@H]2[C@](C)(O)[C@@H]3CC[C@@H]4[C@@H](O)[C@@]3(C[C@@H](O)[C@@]21O)C[C@@]4(C)O`, the inhibition in vivo at 1 mg/kg with Mus musculus [3] was 50%. In addition, in the data set with Mus musculus [4], the inhibition in vivo at 5 mg/kg was found to be 74.1%. In addition, the inhibition in vivo at 0.2 mg/kg in the data set with Mus musculus [5] amounted to 71.5%.

Consider `CC1=C2CC[C@@H]3[C@@H](O)[C@@]2(C[C@H]2O[C@@H](c4ccc(O)cc4)O[C@@]24C1[C@@H](O)[C@H](O)C4(C)C)C[C@@]3(C)O` (stereo not given in full), for which, in the data set with Mus musculus [3], the inhibition in vivo at 1 mg/kg stood at 50%. Besides, in the data set with Mus musculus [4], the inhibition in vivo at 5 mg/kg turned out to be 74.1%.

As to `CC1(C)[C@@H](O)[C@H](OC(=O)c2cccnc2)[C@H]2[C@](C)(O)[C@@H]3CC[C@@H]4[C@@H](O)[C@@]3(C[C@@H](O)[C@@]21O)C[C@@]4(C)O`, the inhibition in vivo at 1 mg/kg in the data set on Mus musculus [3] was determined as 50%. For the same molecule, the Activity entry in data set [6] is reported as “Toxic”.

Broadly, the LD50 is the dose at which mortality reaches 50%. Regarding `CC1(C)[C@@H](O)[C@H](OC(=O)[C@@]2(O)C[C@@H](O)[C@H](O)[C@H](OC(=O)/C=C/c3ccc(O)cc3)C2)[C@H]2[C@](C)(O)[C@@H]3CC[C@@H]4[C@@H](O)[C@@]3(C[C@@H](O)[C@@]21O)C[C@@]4(C)O`, in the data set with Mus musculus [1], the ED50 was determined as 0.074 mg/kg. Also, the LD50 in data set [7] is 131 mg/kg. The inhibition in vivo at 1 mg/kg in the data set with Mus musculus [3] came out at 50%. The inhibition in vivo at 5 mg/kg with Mus musculus [4] was 74.1%. In data set [2], the selectivity ratio worked out at 1770. Besides, the inhibition in vivo at 0.2 mg/kg in the data set with Mus musculus [5] came out at 77.2%.

As for `CC1(C)[C@@H](O)[C@@H]2O[C@@H]3[C@H]4CC[C@H]5[C@@](C)(O)[C@@H]6[C@@H](O[C@@H]7[C@H]8CC[C@H]9[C@@](C)(O)[C@H]2[C@]1(O)[C@H](O)C[C@@]79C[C@@]8(C)O)[C@H](O)C(C)(C)[C@@]6(O)[C@H](O)C[C@@]35C[C@@]4(C)O`, in the data set with Mus musculus [3], the inhibition in vivo at 1 mg/kg came out at 50%. Further, the inhibition in vivo at 5 mg/kg with Mus musculus [4] was found to be 74.1%.

As for `CC(=O)O[C@@H]1C[C@]23C[C@@](C)(O)[C@@H]4CC[C@H]2[C@@](C)(O)[C@@H]2[C@@H](O[C@@H]5[C@H]6CC[C@H]7[C@@](C)(O)[C@@H]8[C@@H](O[C@H]43)[C@H](O)C(C)(C)[C@@]8(O)[C@H](OC(C)=O)C[C@@]57C[C@@]6(C)O)[C@H](O)C(C)(C)[C@@]12O`, the inhibition in vivo at 5 mg/kg in the data set with Mus musculus [4] is 74.1%.

For the molecule `CC1=C2CC[C@@H]3[C@@H](O)[C@@]2(C[C@@H](O)[C@@]2(O)[C@H]1[C@@H](Cl)[C@H](O)C2(C)C)C[C@@]3(C)O`, the inhibition in vivo at 1 mg/kg with Mus musculus [3] came out at 50%.

Take `CN1CC[C@]23c4c5ccc(O)c4O[C@H]2[C@@H](O)C=C[C@H]3[C@H]1C5` [MORPHINE]: the inhibition in vivo at 0.2 mg/kg in the data set with Mus musculus [5] worked out at 39.4%.
